# From patent US4238496A, “4-Substituted thiazolyl-2-oxamic acids and salts and esters thereof” (Boehringer Ingelheim GmbH, priority 1978, dated 1980)
# Counter-ions that a name gives are not always drawn. Like-named read-outs stand apart in the source and are kept apart here.
# Tested on: Passive Cutaneous Anaphylaxis
# Experiment: Passive Cutaneous Anaphylaxis test (PCA) in rats
# Assay type: in vivo
# Conditions: Rattus norvegicus, read-out: ED50 (dose reducing the size of the blued area by 50%)
# Procedure: The compounds of the present invention, that is, those embraced by formula I and their non-toxic, pharmacologically acceptable salts, have useful pharmacodynamic properties.
# The anti-allergic properties were ascertained in rats by the Passive Cutaneous Anaphylaxis test (PCA) essentially as described by Goose and Blair (Immunology 16: 749-760,1969). Rat serum was diluted so that the skin reactions with diameters between 10 and 15 mm in unsensitized rats were produced. The PCA test was performed in duplicate by injecting 0.1 ml of this antiserum dilution on each side of the shaved back of rats. Rats so treated were injected intravenously (i.v.) twenty-four hours later with 5 mg ovalbumin in 0.5 ml of 2% Evans Blue and the test substance to be tested by the i.v. route. In the case of substances tested orally, the i.v. ovalbumin challenge was 0.015 mg in the 0.5 ml of 2% Evans Blue solution administered 20-30 minutes after the oral administration of the test substance. Thirty minutes after challenge the rats were killed by CO2 asphyxiation and the skin reflected the diameters, in millimeters, of the blued areas were measured and the mean diameter determined. The circular area was calculated and the mean area in square millimeters of the control group was considered as 100% and the results of the compound test groups were expressed as a percentage change from these control values. From dose response curves the dose reducing the size of the blued area by 50% (ED50) was estimated.
# [1] = iv, test substance given i.v. with 5 mg ovalbumin in 0.5 ml of 2% Evans Blue
# [2] = p.o., 0.015 mg ovalbumin i.v. challenge 20-30 minutes after oral administration
SMILES,ED50 [1] [mg/kg],ED50 [2] [mg/kg]
"COc1ccc(-c2csc(NC(=O)C(=O)O)n2)c(OC)c1 [4-(2',4'4'-dimethoxy-phenyl)-thiazolyl-2-oxamic acid]",0.39,
"COc1ccc(OC)c(-c2csc(NC(=O)C(=O)O)n2)c1 [4-(2',5'-dimethoxy-phenyl)-thiazolyl-2-oxamic acid ethanolamine salt]",0.4,
COc1ccccc1-c1csc(NC(=O)C(=O)O)n1 [4-(2'-Methoxy-phenyl)-thiazolyl-2-oxamic acid],1.08,
CN(C)c1cccc(-c2csc(NC(=O)C(=O)O)n2)c1 [4-(3' -dimethylamino-phenyl)-thiazolyl-2-oxamic acid ethanolamine salt],0.34,1.06
"COc1ccc(-c2csc(NC(=O)C(=O)O)n2)cc1OC [4-(3',4'-dimethoxy-phenyl)-thiazolyl-2-oxamic acid]",0.13,
COc1cccc(-c2csc(NC(=O)C(=O)O)n2)c1 [4-(3'-methoxy-phenyl)-thiazolyl-2-oxamic acid],0.16,2
CN(C)c1ccc(-c2csc(NC(=O)C(=O)O)n2)cc1 [4-(4'-dimethylamino-phenyl)-thiazolyl-2-oxamic acid],0.02,0.34
O=C(O)C(=O)Nc1nc(-c2ccc3c(c2)OCCO3)cs1 [4-(benzodioxanyl)-thiazolyl-2-oxamic acid ethanolamine salt],0.02,0.7
O=C(O)C(=O)Nc1nc(-c2cccnc2)cs1 [4-[pyridyl-(3')]-thiazolyl-2-oxamic acid ethanolamine salt],0.16,
O=C(O)C(=O)Nc1nc(-c2ccncc2)cs1 [4-[pyridyl-(4')]-thiazolyl-2-oxamic acid ethanolamine salt],0.05,
Cc1sc(NC(=O)C(=O)O)nc1-c1ccccc1 [4-phenyl-5-methyl-thiazolyl-2-oxamic acid],0.19,2.04
CCOC(=O)C(=O)Nc1nc(-c2ccc(O)c(C)c2)cs1 [Ethyl 4-(3'-methyl-4'-hydroxy-phenyl)-thiazolyl-2-oxamate],,2.1
CCOC(=O)C(=O)Nc1nc(-c2ccc(OCC)cc2)cs1 [Ethyl 4-(4'-ethoxy-phenyl)-thiazolyl-2-oxamate],,2.07
CCOC(=O)C(=O)Nc1nc(-c2ccncc2)cs1 [Ethyl 4-[pyridyl-($')]-thiazolyl-2-oxamate],,1.2
"COC(=O)C(=O)Nc1nc(-c2ccc(OC)c(OC)c2)cs1 [Methyl 4-(3',4'-dimethoxy-phenyl)-thiazolyl-2-oxamate]",,1.2
